Reference: patent US9540323B2 (BRISTOL-MYERS SQUIBB COMPANY, priority 2012, dated 2017)
Where a name gives a salt, the structure may show the parent alone.

Experiments:
[1] = biological target: cloned human P2Y1 receptors (Homo sapiens (Human), UniProt P47900); test: Binding Assay B - Scintillation Proximity Assay (SPA) for P2Y1 binding, [33P] 2MeS-ADP; conditions: SPA, 0.3 nM [33P] 2MeS-ADP, Cheng-Prusoff; read-out: P2Y1 Ki (nM) using binding assay B
Description: Binding Assay B—Scintillation Proximity Assay (SPA) for P2Y1 Binding
A SPA membrane binding assay was used to identify inhibitors of [^33P] […] Reactions were allowed to proceed to completion at room temperature for 1 hour followed by centrifugation of the plate for 5 min. About 40 μL of the aqueous solution was aspirated. Plates were sealed and the [^33P]

[2] = system: human platelet rich plasma (PRP); test: ADP induced platelet aggregation assay; conditions: Homo sapiens, Platelet, 5 min, read-out: PA IC50 (μM) @ 10 μM ADP, human PRP, 10 μM ADP, AUC at 5 minute

Chain of cloned human P2Y1 receptors (P47900 whole entry): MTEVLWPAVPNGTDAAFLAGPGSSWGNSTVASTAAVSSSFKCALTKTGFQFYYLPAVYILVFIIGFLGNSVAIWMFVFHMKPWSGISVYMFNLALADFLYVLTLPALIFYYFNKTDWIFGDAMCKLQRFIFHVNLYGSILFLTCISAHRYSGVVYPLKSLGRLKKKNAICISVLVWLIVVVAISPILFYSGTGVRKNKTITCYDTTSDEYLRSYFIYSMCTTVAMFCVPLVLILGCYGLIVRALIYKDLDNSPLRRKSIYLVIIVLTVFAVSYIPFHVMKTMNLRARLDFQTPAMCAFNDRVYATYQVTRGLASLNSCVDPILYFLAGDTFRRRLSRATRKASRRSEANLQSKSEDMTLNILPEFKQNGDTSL

SMILES | Ki [1] [nM] | IC50 [2] [µM]
CC1(C)CN(c2ccccc2NC(=O)Nc2ccc(OC(F)(F)F)cc2)c2c(O)ccc(-c3nc4c(CO)cccc4o3)c21 [Example 106, 1-(2-(7-Hydroxy-4-(4-(hydroxymethyl)benzo[d]oxazol-2-yl)-3,3-dimethylindolin-1-yl)phenyl)-3-(4-(trifluoromethoxy)phenyl) urea] | 364 | 3.28
CNc1ncnc2oc(-c3ccc(O)c4c3C(C)(C)CN4c3ccccc3NC(=O)Nc3ccc(OC(F)(F)F)cc3)nc12 [Example 107, 1-(2-(7-Hydroxy-3,3-dimethyl-4-(7-(methylamino)oxazolo[5,4-d]pyrimidin-2-yl)indolin-1-yl)phenyl)-3-(4-(trifluoromethoxy)phenyl)urea] | 24 | 3.85
CC1(C)CN(c2ccccc2NC(=O)Nc2nc3ccc(F)nc3s2)c2c(O)ccc(-c3nc4ccc(Cl)cc4o3)c21 [Example 108, 1-(2-(4-(6-Chlorobenzo[d]oxazol-2-yl)-7-hydroxy-3,3-dimethylindolin-1-yl)phenyl)-3-(5-fluorothiazolo[5,4-b]pyridin-2-yl)urea] | 9.7 | 0.19
CC(C)(C)CN1CCCC1c1ccc(NC(=O)Nc2ccccc2N2CC(C)(C)c3c(-c4nc5ccc(Cl)cc5o4)ccc(O)c32)cc1 (stereo not drawn) [Example 109, 1-(2-(4-(6-Chlorobenzo[d]oxazol-2-yl)-7-hydroxy-3,3-dimethylindolin-1-yl)phenyl)-3-(4-(1-neopentylpyrrolidin-2-yl)phenyl)urea] | 22 | 0.13
COc1ccc2nc(NC(=O)Nc3ccccc3N3CC(C)(C)c4c(-c5nc6ccc(Cl)cc6o5)ccc(O)c43)sc2n1 [Example 110, 1-(2-(4-(6-Chlorobenzo[d]oxazol-2-yl)-7-hydroxy-3,3-dimethylindolin-1-yl)phenyl)-3-(5-methoxythiazolo[5,4-b]pyridin-2-yl)urea] | 15.4 | 0.31
CC1(C)CN(c2ccccc2NC(=O)Nc2ccc(OC(F)(F)F)cc2)c2c(O)ccc(-c3cc(F)nc(F)c3)c21 [Example 111, 1-(2-(4-(2,6-Difluoropyridin-4-yl)-7-hydroxy-3,3-dimethylindolin-1-yl)phenyl)-3-(4-(trifluoromethoxy)phenyl)urea, TFA] | 7.5 | 0.14
CC1(C)CN(c2ccccc2NC(=O)Nc2ccc(OC(F)(F)F)cc2)c2c(O)ccc(-c3ccnc(F)c3)c21 [Example 112, 1-(2-(4-(2-Fluoropyridin-4-yl)-7-hydroxy-3,3-dimethylindolin-1-yl)phenyl)-3-(4-(trifluoromethoxy)phenyl) urea] | 9 | 0.43
CC1(C)CN(c2ccccc2NC(=O)Nc2ccc(OC(F)(F)F)cc2)c2c(O)ccc(-c3ccncc3)c21 [Example 113, 1-(2-(7-Hydroxy-3,3-dimethyl-4-(pyridin-4-yl)indolin-1-yl)phenyl)-3-(4-(trifluoromethoxy)phenyl)urea] | 5.9 | 0.35
CC1(C)CN(c2ccccc2NC(=O)Nc2ccc(OC(F)(F)F)cc2)c2c(O)ccc(-c3ccncc3Cl)c21 [Example 114, 1-(2-(4-(3-Chloropyridin-4-yl)-7-hydroxy-3,3-dimethylindolin-1-yl)phenyl)-3-(4-(trifluoromethoxy)phenyl) urea] | 26.5 | 0.53
CC1(C)CN(c2ccccc2NC(=O)Nc2ccc(OC(F)(F)F)cc2)c2c(O)ccc(-c3cncc(Cl)c3)c21 [Example 116, 1-(2-(4-(5-Chloropyridin-3-yl)-7-hydroxy-3,3-dimethylindolin-1-yl)phenyl)-3-(4-(trifluoromethoxy)phenyl) urea] | 22.4 | 0.5
CC1(C)CN(c2ccccc2NC(=O)Nc2ccc(OC(F)(F)F)cc2)c2c(O)ccc(-c3cncc(F)c3)c21 [Example 117, 1-(2-(4-(5-Fluoropyridin-3-yl)-7-hydroxy-3,3-dimethylindolin-1-yl)phenyl)-3-(4-(trifluoromethoxy)phenyl) urea] | 36 | 0.51
Cc1cc(-c2ccc(O)c3c2C(C)(C)CN3c2ccccc2NC(=O)Nc2ccc(OC(F)(F)F)cc2)cnc1F [Example 119, 1-(2-(4-(6-Fluoro-5-methylpyridin-3-yl)-7-hydroxy-3,3-dimethylindolin-1-yl)phenyl)-3-(4-(trifluoromethoxy)phenyl) urea] | 3.3 | 0.47
CC1(C)CN(c2ccccc2NC(=O)Nc2ccc(OC(F)(F)F)cc2)c2c(O)ccc(-c3ccc(C(F)(F)F)nc3)c21 [Example 120, 1-(2-(7-Hydroxy-3,3-dimethyl-4-(6-(trifluoromethyl)pyridin-3-yl)indolin-1-yl)phenyl)-3-(4-(trifluoromethoxy)phenyl)urea,TFA] | 7.9 | 0.14
CC1(C)CN(c2ccccc2NC(=O)Nc2ccc(OC(F)(F)F)cc2)c2c(O)ccc(-c3ccc(Cl)s3)c21 [Example 121, 1-(2-(4-(5-Chlorothiophen-2-yl)-7-hydroxy-3,3-dimethylindolin-1-yl)phenyl)-3-(4-(trifluoromethoxy)phenyl)urea] | 113 | 0.2
CC1(C)CN(c2ccccc2NC(=O)Nc2nc3ccc(Cl)cc3s2)c2c(O)ccc(-c3nc4ccc(F)cc4s3)c21 [Example 128, 1-(6-Chlorobenzo[d]thiazol-2-yl)-3-(2-(4-(6-fluorobenzo[d]thiazol-2-yl)-7-hydroxy-3,3-dimethylindolin-1-yl)phenyl)urea] | 108 | 0.24
CC1(C)CN(c2ccccc2NC(=O)Nc2ccc(OC(F)(F)F)cc2)c2c(O)c(F)cc(-c3ccc(C(F)(F)F)cn3)c21 [Example 129, 1-(2-(6-Fluoro-7-hydroxy-3,3-dimethyl-4-(5-(trifluoromethyl)pyridin-2-yl)indolin-1-yl)phenyl)-3-(4-(trifluoromethoxy)phenyl)urea] | 15.3 | 0.71
CC1(C)CN(c2ccccc2NC(=O)Nc2ccc(OC(F)(F)F)cc2)c2c(O)c(F)cc(-c3nc4ccc(Cl)cc4s3)c21 [Example 130, 1-(2-(4-(6-Chlorobenzo[d]thiazol-2-yl)-6-fluoro-7-hydroxy-3,3-dimethylindolin-1-yl)phenyl)-3-(4-(trifluoromethoxy)phenyl)urea] | 93.5 | 1.8
CC1(C)CN(c2ccccc2NC(=O)Nc2ccc(OC(F)(F)F)cc2)c2c(O)ccc(-c3cnc(Cl)cn3)c21 [Example 131, 1-(2-(4-(5-Chloropyrazin-2-yl)-7-hydroxy-3,3-dimethylindolin-1-yl)phenyl)-3-(4-(trifluoromethoxy)phenyl)urea] | 9.1 | 0.42
CC1(C)CN(c2ccccc2NC(=O)Nc2ccc(OC(F)(F)F)cc2)c2c(O)ccc(-c3cnccn3)c21 [Example 132, 1-(2-(7-Hydroxy-3,3-dimethyl-4-(pyrazin-2-yl)indolin-1-yl)phenyl)-3-(4-(trifluoromethoxy)phenyl)urea] | 18.8 | 1.29
CC1(C)CN(c2ccccc2NC(=O)Nc2ccc(OC(F)(F)F)cc2)c2c(O)ccc(-c3ncc(F)cn3)c21 [Example 133, 1-(2-(4-(5-Fluoropyrimidin-2-yl)-7-hydroxy-3,3-dimethylindolin-1-yl)phenyl)-3-(4-(trifluoromethoxy)phenyl)urea] | 10.2 | 0.69
CC1(C)CN(c2ccccc2NC(=O)Nc2nc3ccc(F)cc3s2)c2c(O)ccc(-c3nc4ccc(Cl)cc4o3)c21 [Example 134, 1-(2-(4-(6-Chlorobenzo[d]oxazol-2-yl)-7-hydroxy-3,3-dimethylindolin-1-yl)phenyl)-3-(6-fluorobenzo[d]thiazol-2-yl)urea] | 73.8 | 0.19
CC1(C)CN(c2ccccc2NC(=O)Nc2ccc(OC(F)(F)F)cc2)c2c(O)cc(F)c(-c3ccc(C(F)(F)F)nc3)c21 [Example 135, 1-(2-(5-Fluoro-7-hydroxy-3,3-dimethyl-4-(6-(trifluoromethyl)pyridin-3-yl)indolin-1-yl)phenyl)-3-(4-(trifluoromethoxy)phenyl)urea] | 8.7 | 0.15
CC1(C)CN(c2ccccc2NC(=O)Nc2ccc(OC(F)(F)F)cc2)c2c(O)cc(F)c(-c3nc4ccc(F)cc4s3)c21 [Example 144, 1-(2-(5-Fluoro-4-(6-fluorobenzo[d]thiazol-2-yl)-7-hydroxy-3,3-dimethylindolin-1-yl)phenyl)-3-(4-(trifluoromethoxy)phenyl)urea] | 10 | 0.5
CC1(C)CN(c2ccccc2NC(=O)Nc2nc3ccc(F)cc3s2)c2c(O)cc(F)c(-c3nc4ccc(F)cc4s3)c21 [Example 146, 1-(2-(5-Fluoro-4-(6-fluorobenzo[d]thiazol-2-yl)-7-hydroxy-3,3-dimethylindolin-1-yl)phenyl)-3-(6-fluorobenzo[d]thiazol-2-yl)urea] | 47.2 | 0.3
CC1(C)CN(c2ccccc2NC(=O)Nc2csc(Cl)n2)c2c(O)ccc(-c3nc4cc(Cl)ccc4s3)c21 [Example 147, 1-(2-(4-(5-Chlorobenzo[d]thiazol-2-yl)-7-hydroxy-3,3-dimethylindolin-1-yl)phenyl)-3-(2-chlorothiazol-4-yl)urea] | 70.8 | 0.77
CC1(C)CN(c2ccccc2NC(=O)Nc2ccc(OC(F)(F)F)cc2)c2c(O)cc(F)c(-c3nc4ccc(Cl)cc4s3)c21 [Example 148, 1-(2-(4-(6-Chlorobenzo[d]thiazol-2-yl)-5-fluoro-7-hydroxy-3,3-dimethylindolin-1-yl)phenyl)-3-(4-(trifluoromethoxy)phenyl)urea] | 83 | 0.68
CC1(C)CN(c2ccccc2NC(=O)Nc2ccc(OC(F)(F)F)cc2)c2c(O)cc(F)c(-c3ccc(C(F)(F)F)cn3)c21 [Example 149, 1-(2-(5-Fluoro-7-hydroxy-3,3-dimethyl-4-(5-(trifluoromethyl)pyridin-2-yl)indolin-1-yl)phenyl)-3-(4-(trifluoromethoxy)phenyl)urea] | 13 | 0.11
